Data published in patent publication US20220204512A1, “SUBSTITUTED FUSED BICYCLIC DERIVATIVE, PREPARATION METHOD THEREFOR, AND APPLICATION THEREOF IN MEDICINES” (Jiangsu Hengrui Medicine Co., Ltd., priority 2019, published 2022).

What was measured:
[1] = molecular target: T1, ERK2 (Homo sapiens, UniProt P28482); assay: ERK2 enzyme activity test (ADP-Glo Kinase Assay); type: biochemical; conditions: ADP-Glo chemiluminescence
T1 construct: purchased R&D 1879-KS-010
Procedure: The purpose of this experiment is to detect the inhibitory ability of the compounds of the present disclosure on the ERK2 enzyme activity, and to evaluate the in vitro activity of the compounds based on the IC50. The ADP-Glo™ Kinase Assay Kit was used in this experiment. The substrate was phosphorylated under the action of the enzyme and ADP was produced at the same time. The ADP-Glo reagent was added to remove the unreacted ATP in the reaction system, and the ADP produced by the reaction was detected with kinase detection reagent. In the presence of the compound, the inhibition rate of the compound was calculated by measuring the signal value.
Preparation of enzyme and substrate: ERK2 (1879-KS-010, R&D) and substrate (custom peptide, Gill Biochemical) were prepared to 0.75 ng/ml and 1500 μM in a buffer (40 mM Tris, 20 mM MgCl2, 0.1 mg/ml BSA, 50 μM DTT), and then the enzyme solution and the substrate solution were prepared into a mixed solution at a volume ratio of 2:1 for later use. ATP was diluted to 500 μM with buffer. The compound was dissolved in DMSO (dimethyl sulfoxide, Shanghai Titan Scientific Co., Ltd.) to prepare a stock solution with an initial concentration of 20 mM, and then Bravo was used to prepare the compound. Finally, 3 μL of a mixed solution of enzyme and substrate, and 1 μL substrate of different concentrations of the compound (the initial concentration is 50 μM, 4-fold dilution) were added to each well of the 384-well plate, and the plate was incubated at 30° C. for 10 minutes, and finally 1 μL 500 μM ATP solution was added to each well, and the plate was incubated at 30° C. for 2 hours. Then 5 μL of ADP-Glo was added, and the plate was incubated at 30° C. for 40 minutes. Then 10 μL of kinase detection buffer was added, and the plate was incubated at 30° C. for 40 minutes. The 384-well plate was taken out and placed in a microplate reader (BMG labtech, PHERAstar FS), and the chemiluminescence was measured by a microplate reader.
Microsoft Excel, Graphpad Prism 5 was used to process and analyze the data.

[2] = Pharmacokinetics assay in mice; type: in vivo; conditions: female, mouse, po, C57 mice, intragastric, 2 mg/kg, plasma
Procedure: Mice were used as test animals. The drug concentration in plasma at different time points was determined by LC/MS/MS method after administration of the compounds 1-P2, 2-P2, 4-P2, 6-P2, 9-P2, 10-P2 and 11-P2. The pharmacokinetic behavior of the compounds of the present disclosure was studied and evaluated in mice.
Sixty-three C57 mice (female, equally divided into seven groups) were purchased from Shanghai Jiesijie Laboratory Animal Co., LTD. (Certificate No.: SCXK(Shanghai)2013-0006).
A certain amount of the test compound was weighed, dissolved in 5% of DMSO by volume and 5% of tween 80, followed by the additon of 90% of normal saline to prepare a 0.1 mg/mL colorless, clear and transparent solution.
After an overnight fast, C57 mice were intragastrically administered the test compound at an administration dose of 2 mg/kg and an administration volume of 0.2 ml/10 g.
The mice were intragastrically administered the test compounds. 0.1 ml of blood was taken before the administration and at 0.25, 0.5, 1.0, 2.0, 4.0, 6.0, 8.0, 11.0 and 24.0 hours after the administration. The samples were stored in heparinized tubes, and centrifuged for 10 minutes at 3500 rpm to separate the blood plasma. The plasma samples were stored at −20° C.
The content of the test compound in the plasma of mice after intragastrical administration of the test compound at different concentrations was determined: 25 μL of […] plasma at each time point after the administration was taken, followed by the addition of 50 μL of the internal standard camptothecin solution (100ng/mL) and 200 μL of acetonitrile. The resulting solution was vortex-mixed for 5 minutes, and centrifuged for 10 minutes (4000 rpm). 4 μL of the supernatant was taken from the plasma samples for LC/MS/MS analysis.

T1 sequence (P28482 2-360 limits assumed): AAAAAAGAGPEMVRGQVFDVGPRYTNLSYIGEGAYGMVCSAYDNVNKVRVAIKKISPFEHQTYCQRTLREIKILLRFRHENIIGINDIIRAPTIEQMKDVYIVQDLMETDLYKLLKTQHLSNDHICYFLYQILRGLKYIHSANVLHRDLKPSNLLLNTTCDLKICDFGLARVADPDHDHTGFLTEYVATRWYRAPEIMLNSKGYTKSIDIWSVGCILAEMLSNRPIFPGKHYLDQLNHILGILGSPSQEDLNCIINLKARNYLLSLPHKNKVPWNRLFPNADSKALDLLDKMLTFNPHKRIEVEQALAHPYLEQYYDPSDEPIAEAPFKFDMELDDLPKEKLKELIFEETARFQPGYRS

| SMILES | IC50 [1] [nM] | also measured |
| --- | --- | --- |
| COc1cc(F)cc([C@@H](CO)NC(=O)[C@H](C)N2CCc3cc(-c4nc(Nc5ccnn5C)ncc4C)cn3C2=O)c1 [Example 1-P1, (S)-N-((S)-1-(3-Fluoro-5-methoxyphenyl)-2-hydroxyethyl)-2-(6-(5-methyl-2-((1-methyl-1H-pyrazol-5-yl)amino)pyrimidin-4-yl)-1-oxo-3,4-dihydropyrrolo[1,2-c]pyrimidin-2(1H)-yl)propanamide] | 811 | – |
| COc1cc(F)cc([C@@H](CO)NC(=O)[C@H](C)N2CCc3cc(-c4nc(NC5CCOCC5)ncc4Cl)cn3C2=O)c1 [Example 2-P1, (S)-2-(6-(5-Chloro-2-((tetrahydro-2H-pyran-4-yl)amino)pyrimidin-4-yl)-1-oxo-3,4-dihydropyrrolo[1,2-c]pyrimidin-2(1H)-yl)-N-((S)-1-(3-fluoro-5-methoxyphenyl)-2-hydroxyethyl)propanamide] | 336 | – |
| COc1cc(F)cc([C@@H](CO)NC(=O)[C@H](C)N2CCn3cc(-c4nc(NC5CCOCC5)ncc4Cl)cc3C2=O)c1 [Example 4-P1, (S)-2-(7-(5-Chloro-2-((tetrahydro-2H-pyran-4-yl)amino)pyrimidin-4-yl)-1-oxo-3,4-dihydropyrrolo[1,2-a]pyrazin-2(1H)-yl)-N-((S)-1-(3-fluoro-5-methoxyphenyl)-2-hydroxyethyl)propanamide] | 819 | – |
| Cc1cccc([C@@H](CO)NC(=O)C(C)N2CCn3cc(-c4nc(NC5CCOCC5)ncc4Cl)nc3C2=O)c1 (stereo partly drawn) [Example 5, 2-(2-(5-Chloro-2-((tetrahydro-2H-pyran-4-yl)amino)pyrimidin-4-yl)-8-oxo-5,6-dihydroimidazo[1,2-a]pyrazin-7(8H)-yl)-N-((S)-2-hydroxy-1-(m-tolyl)ethyl)propanamide] | 3.6 | – |
| COc1cc(F)cc([C@@H](CO)NC(=O)[C@H](C)N2Cc3cc(-c4nc(NC5CCOCC5)ncc4Cl)cn3C2=O)c1 [Example 6-P1, (S)-2-(6-(5-Chloro-2-((tetrahydro-2H-pyran-4-yl)amino)pyrimidin-4-yl)-3-oxo-1H-pyrrolo[1,2-c]imidazol-2(3H)-yl)-N-((S)-1-(3-fluoro-5-methoxyphenyl)-2-hydroxyethyl)propanamide] | 2540 | – |
| COc1cc(F)cc([C@@H](CO)NC(=O)[C@@H](C)N2Cc3cc(-c4nc(NC5CCOCC5)ncc4Cl)cn3C2=O)c1 [Example 6-P2, (R)-2-(6-(5-Chloro-2-((tetrahydro-2H-pyran-4-yl)amino)pyrimidin-4-yl)-3-oxo-1H-pyrrolo[1,2-c]imidazol-2(3H)-yl)-N-((S)-1-(3-fluoro-5-methoxyphenyl)-2-hydroxyethyl)propanamide] | 7.5 | Vd/F ([2]; read-out: Apparent distribution volume Vz/F): 7.74 L/kg; AUC ([2]; read-out: Area under curve AUC): 1740 ng·h/mL; CL/F ([2]; read-out: Clearance CLz/F): 18.9 mL/min/kg; half-life ([2]; read-out: Half-life T1/2 (converted)): 4.74 h; Cmax ([2]; read-out: Plasma concentration Cmax): 1310 ng/mL; MRT ([2]; read-out: Residence time MRT): 1.39 h |

More lines, main results first:

| IC50 [1] [nM] | SMILES | also measured |
| --- | --- | --- |
| 2120 | COc1cc(F)cc([C@@H](CO)NC(=O)[C@H](C)N2Cc3cc(-c4nc(Nc5ccnn5C)ncc4C)cn3C2=O)c1 [Example 8-P1, (S)-N-((S)-1-(3-Fluoro-5-methoxyphenyl)-2-hydroxyethyl)-2-(6-(5-methyl-2-((1-methyl-1H-pyrazol-5-yl)amino)pyrimidin-4-yl)-3-oxo-1H-pyrrolo[1,2-c]imidazol-2(3H)-yl)propanamide] | – |
| 26 | COc1cc(F)cc([C@@H](CO)NC(=O)[C@@H](C)N2Cc3cc(-c4nc(Nc5ccnn5C)ncc4C)cn3C2=O)c1 [Example 8-P2, (R)-N-((S)-1-(3-Fluoro-5-methoxyphenyl)-2-hydroxyethyl)-2-(6-(5-methyl-2-((1-methyl-1H-pyrazol-5-yl)amino)pyrimidin-4-yl)-3-oxo-1H-pyrrolo[1,2-c]imidazol-2(3H)-yl)propanamide] | – |
| 75 | Cc1cccc([C@@H](CO)NC(=O)[C@H](C)N2CCc3cc(-c4nc(NC5CCOCC5)ncc4Cl)cn3C2=O)c1 [Example 11-P1, (S)-2-(6-(5-Chloro-2-((tetrahydro-2H-pyran-4-yl)amino)pyrimidin-4-yl)-1-oxo-3,4-dihydropyrrolo[1,2-c]pyrimidin-2(1H)-yl)-N-((S)-2-hydroxy-1-(m-tolyl)ethyl)propanamide] | – |
| 948 | COc1cc(F)cc([C@@H](CO)NC(=O)[C@H](C)N2CCn3cc(-c4nc(Nc5ccnn5C)ncc4C)cc3C2=O)c1 [Example 12-P1, (S)-N-((S)-1-(3-Fluoro-5-methoxyphenyl)-2-hydroxyethyl)-2-(7-(5-methyl-2-((1-methyl-1H-pyrazol-5-yl)amino)pyrimidin-4-yl)-1-oxo-3,4-dihydropyrrolo[1,2-a]pyrazin-2(1H)-yl)propanamide] | – |
| 1530 | COc1cc(F)cc([C@@H](CO)NC(=O)[C@H](C)N2CCn3cc(-c4nc(N[C@@H](C)CO)ncc4Cl)nc3C2=O)c1 [Example 14-P1, (S)-2-(2-(5-Chloro-2-(((S)-1-hydroxypropan-2-yl)amino)pyrimidin-4-yl)-8-oxo-5,6-dihydroimidazo[1,2-a]pyrazin-7(8H)-yl)-N-((S)-1-(3-fluoro-5-methoxyphenyl)-2-hydroxyethyl)propanamide] | – |
| 4.9 | COc1cc(F)cc([C@@H](CO)NC(=O)[C@@H](C)N2CCn3cc(-c4nc(N[C@@H](C)CO)ncc4Cl)nc3C2=O)c1 [Example 14-P2, (R)-2-(2-(5-Chloro-2-(((S)-1-hydroxypropan-2-yl)amino)pyrimidin-4-yl)-8-oxo-5,6-dihydroimidazo[1,2-a]pyrazin-7(8H)-yl)-N-((S)-1-(3-fluoro-5-methoxyphenyl)-2-hydroxyethyl)propanamide] | – |
| 28.7 | COc1cc(F)cc([C@@H](CO)NC(=O)[C@@H](C)N2CCn3cc(-c4nc(N[C@@H](C)CO)ncc4Cl)cc3C2=O)c1 [Example 15, (R)-2-(7-(5-Chloro-2-(((S)-1-hydroxypropan-2-yl)amino)pyrimidin-4-yl)-1-oxo-3,4-dihydropyrrolo[1,2-a]pyrazin-2(1H)-yl)-N-((S)-1-(3-fluoro-5-methoxyphenyl)-2-hydroxyethyl)propanamide] | – |
| 5.5 | Cc1cccc([C@@H](CO)NC(=O)[C@@H](C)N2CCn3cc(-c4ccnc(Nc5ccnn5C)n4)cc3C2=O)c1 [Example 18-P2, (R)-N-((S)-2-Hydroxy-1-(m-tolyl)ethyl)-2-(7-(2-((1-methyl-1H-pyrazol-5-yl)amino)pyrimidin-4-yl)-1-oxo-3,4-dihydropyrrolo[1,2-a]pyrazin-2(1H)-yl)propanamide] | – |
